Results as given in article PMC12040169 (PLOS Biology, 2025).

Assay: in vitro
Conditions: human, hela cells, % viability

In order of rising viability at 28.5 h, 10 µM:
1. C=C(C)Cn1c(SCCC(=O)OC)nc2sc3c(c2c1=O)CC(C)(C)OC3 [CBK026634]  59.9%
2. Nc1nc(N)c2cc(C(F)(F)F)ccc2n1 [CBK025934]  66.4%
3. C[C@@H]1CNCCN1c1cc(C(F)(F)F)cc(OCc2ccccc2)n1 [CBK026755]  79.1%
4. COC(=O)c1c(NS(=O)(=O)c2cccc(Cl)c2)csc1C [CBK026678]  79.6%
5. NC(=O)N/N=C/c1cc(Br)cs1 [CBK026434]  81.8%
6. Clc1ccc(CNC2CCCCC2NCc2ccc(Cl)nc2)cn1 (stereo not drawn) [CBK025983]  82.7%
7. Brc1ccc(-c2nnco2)cc1 [CBK026512]  84.3%
8. O=[N+]([O-])c1ccc(CN2CCN(C/C=C/c3ccccc3)CC2)o1 [CBK026551]  85.1%
9. COc1ccc2[nH]c3c(=O)n(C)cnc3c2c1 [CBK025870]  85.8%
10. CCOC(=O)C1=NN(C(=O)c2ccc(Cl)cc2)C(O)(C(C)(C)C)C1 (stereo not drawn) [CBK026308]  86%
11. Clc1ccc(-c2noc(-c3ccco3)n2)cc1 [CBK026405]  86%
12. CC1=C(C(=O)OC(C)C)C(c2cccc(I)c2)C2=C(CCCC2=O)N1 (stereo not drawn) [CBK026317]  86.5%
13. O=C(Nc1nc2ccc(Br)cc2s1)C1CC2CCC1C2 (stereo not drawn) [CBK026397]  88.8%
14. Cc1cc(C)c2nc(-n3cncn3)c(C)cc2c1 [CBK025958]  88.9%
15. Cc1nn(C)c2c1c(=O)n(C)c(=O)n2C [CBK026140]  89.2%
16. OC(COc1ccccc1)Cn1ncnn1 (stereo not drawn) [CBK026083]  89.6%
17. COc1ccc2c(-n3cncn3)ccnc2c1 [CBK025957]  90.2%
18. Cc1ccc(SCCNS(C)(=O)=O)cc1 [CBK026280]  90.8%
19. CCc1nc(C)ccc1O [CBK026535C]  91%
20. CSc1nc(NC(=O)C(C)c2ccccc2)cc(N2CCNCC2)n1 (stereo not drawn) [CBK026742T]  91.2%
21. CC1(C)SC(c2ccc(F)cc2)N[C@H]1C(=O)O (stereo partly drawn) [CBK025917]  91.4%
22. Nc1nc(N)c2cccc(F)c2n1 [CBK025945]  91.4%
23. CCCC1(OC(=O)Nc2ccc(Cl)cc2)CCCCC1 [CBK026295]  91.4%
24. CCc1nnc(NS(=O)(=O)c2ccc(OC(F)(F)F)cc2)s1 [CBK026672]  91.7%
25. CS(=O)(=O)N/N=C/c1cccc(Br)c1 [CBK026427]  92.5%
26. Cc1ccc(NC(=O)OCC(F)(F)C(F)F)cc1Cl [CBK026548]  93.1%
27. CC1CCCC(C)N1C(=O)C1CCCCC1C(=O)O (stereo not drawn) [CBK026624]  93.2%
28. CC(=O)Nc1nc(NC(C)=O)n2c(-c3ccccc3)nnc2n1 [CBK026649]  93.7%
29. COC(=O)Cn1c(=O)sc2cccc(Cl)c21 [CBK026076]  93.9%
30. O=C(O)CSc1c[nH]c2ccccc12 [CBK026377]  93.9%
31. COc1ccc(CCCC(=O)NC2CCCCC2C)cc1 (stereo not drawn) [CBK026124]  94.3%
32. COC(=O)c1scc(NS(=O)(=O)c2cccc(C(F)(F)F)c2)c1C(=O)OC [CBK026680]  94.9%
33. O=C(CCOc1ccccc1)Nc1cncc(OC2CCNCC2)n1 [CBK026734T]  95.2%
34. NC(=O)CS(=O)(=O)c1ccc(Cl)cc1 [CBK026373]  95.7%
35. Cc1nnc(NS(=O)(=O)c2ccc(OC(F)(F)F)cc2)s1 [CBK026673]  95.9%
36. CC1CN(c2ccccc2Br)NC1=O (stereo not drawn) [CBK026500]  96.7%
37. O=C(CSc1nc(=O)cc(O)[nH]1)c1ccccc1 [CBK026570]  96.7%
38. CC(C)Cc1csc2nc(-c3ccc(Br)cc3)oc(=O)c12 [CBK026692]  96.7%
39. O=C(O)c1nc2n(n1)C(C(F)(F)F)CC(c1cccs1)N2 (stereo not drawn) [CBK026415]  97%
40. CCn1c(=O)sc2cc(Br)ccc21 [CBK026526]  97%
41. O=S(=O)(O)CCCSc1nc2ccccc2o1 [CBK026507N]  97.2%
42. CCC1=NC(c2ccccc2Cl)N(O)C1(C)C (stereo not drawn) [CBK026466]  97.5%
43. CCc1nnc(N/N=C/c2cccs2)n1N [CBK026233C]  97.9%
44. OC1CCCCC1C1(NC(=S)Nc2ccccc2)CCCCC1 (stereo not drawn) [CBK026324]  97.9%
45. CC(=O)NCC1OCCc2ccccc21 (stereo not drawn) [CBK026449]  98.4%
46. CC(C)c1ccc2c(c1)C(N1CCN(C)CC1)Cc1cccnc1S2 (stereo not drawn) [CBK026244G]  98.7%
47. CCCn1nnn(-c2cc(OCCOCC)c(Cl)cc2Cl)c1=O [CBK026016]  99%
48. Cc1nnc(SCC(=O)c2ccccc2)[nH]1 [CBK026287]  99.5%
49. CC1NCCc2c1sc1ccccc21 (stereo not drawn) [CBK026032C]  100%
50. Oc1cccnc1CCc1ccccc1 [CBK026334C]  100%
51. Cc1n[nH]c(O)c1C(c1ccc(Br)o1)c1c(C)n[nH]c1O [CBK026150]  102%
52. CCc1cccc2c1Sc1ccccc1CC2N1CCN(C)CC1 (stereo not drawn) [CBK026248G]  103%
53. Brc1csc(CN2CCN3CCCC3C2C2CCCCC2)c1 (stereo not drawn) [CBK026298]  103%
54. O=C(O)COc1ccc(Br)cn1 [CBK026021]  104%
55. CCCSc1nnc(-c2c(Cl)c(CC)nn2C)s1 [CBK026135]  104%
56. CN1CCC(=NNC(=O)CSCc2ccccc2Br)CC1 [CBK026542]  104%
57. CS(=O)(=O)N/N=C/c1ccc(Cl)cc1Cl [CBK026420]  105%
58. COC(=O)c1sc(NC(=O)C2CC2)c(C#N)c1C [CBK026049]  107%
59. O=C(C1CCC1)N1CCN(c2ccccn2)CC1 [CBK026058]  107%
60. CSc1nc2c(cc1C#N)CCC2 [CBK026532]  108%
61. O=C(c1cccnc1N1CCCCC1)N1CCCCC1 [CBK025882]  109%
62. CC(SCCc1ccccn1)C(=O)O (stereo not drawn) [CBK026572]  109%
63. CC1CN(C(=O)NC2CCCCC2)C(c2ccccc2)ON1C (stereo not drawn) [CBK026650]  109%
64. Cc1ccsc1CN1CCOCC1 [CBK026429]  110%
65. C/C(CS(=O)(=O)c1ccccc1)=N/NC(N)=S [CBK026285]  111%
66. Cc1ccc(C(C)C)c(OCC(O)CNC(C)C)c1 (stereo not drawn) [CBK026604C]  111%
67. S=c1nc(-c2ccccc2)n2cc(Br)ccc2n1 [CBK026696]  111%
68. O=C(Nc1nnc[nH]1)c1cccnc1Cl [CBK026067]  113%
69. C(=N\Nc1nc2ccccc2[nH]1)/c1cccnc1 [CBK026357]  115%
70. CC(Sc1ccccc1)C(=O)NC(C)(C)C (stereo not drawn) [CBK026610]  116%
71. CCCCCc1nc(N)c(-c2cccc(Br)c2)c(C#N)c1CCCC [CBK026574]  118%
72. CCOc1ccccc1OCC(C)CNC (stereo not drawn) [CBK026242G]  120%
73. S=c1[nH]nc(Nc2ccccc2)n1-c1ccccc1 [CBK026332]  123%

Same assay, conditions: human, hela cells, % viability, bulk resorufin, single well

In order of falling viability at 28.5 h, 10 µM:
1. Cc1cn(-c2ccc(OC(=O)NC(C)(C)C)c(Cl)c2)c(=O)n1C [CBK025991]  106%
2. CNCCc1csc2ccc(C)cc12 [CBK026097]  91.6%
